Laboratory results reported in patent US9682125B2, “Compositions and methods for treating cognitive deficits” (Case Western Reserve University, priority 2011, dated 2017).
No end group written: not given here.

Experiments:
[1] = Body weight change during 5-week pramlintide minipump infusion; assay type: in vivo; conditions: over 5-week treatment period, 0.24 mg/kg/day s.c. minipump, SAMP8 mice
Protocol: SAMP8 and SAM-resistant 1 (SAMR1) mice were obtained from an established colony at Case Western Reserve University. All animals were group housed, provided ad libitum access to a standard diet and water, and were exposed to a 12/12 light/dark daily cycle. The mice were housed under pathogen-free conditions at a temperature of 21±1.5° C.
(§1) All SAMP8 mice were treated with either saline or pramlintide beginning at 6 months of age. A subcutaneous ALZET® osmotic minipump (Model 2002, Durect Corp., Cupertino, Calif., USA) was surgically implanted into all mice as described previously^26. The osmotic mini-pump infused 0.24 mg/kg/day pramlintide acetate (0.6 mg/mL pramlintide, Amylin Pharmaceuticals, Inc., San Diego, Calif.) or saline at a rate of 0.5 μL/hr. Pumps were replaced with new refilled pumps every two weeks throughout the study duration. All animals were weighed weekly throughout the course of the experiment.
To investigate the effects of pramlintide on memory, SAMP8 mice were continually infused with saline or pramlintide for a total of five weeks. Consistent with pramlintide's known anorexic effect, the pramlintide-treated mice experienced a change in body weight of −5.8% (Std=4.7) over the course of the treatment period as compared to a weight change of −0.1% (6.1) for the saline-treated mice. […]

SAMP8 mice [2] = experiment: Object recognition task; assay type: in vivo; conditions: 7-month SAMP8 mice
Protocol: as §1
A total of 20 SAMP8 mice were used in the object recognition task. […] The mice were allowed to explore the environment for 10 minutes, during which their movements were recorded with a tracking system. […]
Videos recordings of the retention session were scored by an investigator blinded to the treatment groups. Object exploration, defined as the duration of time in which the head of the mouse faced less than ½ cm from the object, was measured during the training and retention sessions. The frequency of object exploration was also recorded, as well as the frequency and time spent rearing and grooming to determine general exploratory behavior. […] The recognition index was calculated as the percent of time spent exploring the novel object versus the total time spent exploring the objects.

synapsin I = experiment: Western blotting of hippocampal synapsin I; assay type: in vivo; conditions: SAMP8 mice treated five weeks, vs saline
Protocol: (§2) All SAMP8 mice were sacrificed by lethal overdose 5 weeks after the initiation of the pramlintide and saline treatments. The brains were harvested and the hippocampus was dissected and homogenized in protease and phosphatase inhibitor-supplemented 1×RIPA lysis/extraction buffer (Pierce). Total protein was quantified using the BCA Protein Assay Kit (Pierce). 10-20 μg of protein was run in a 10% SDS-PAGE gel and the protein was transferred onto Polyvinylidene fluoride (PVDF) membranes (Millipore). After blocking for one hour in 5% milk, the membranes were incubated overnight at 4° C. in the primary antibody at a 1:1000 dilution, followed by a 1-hour incubation with HRP-conjugated IgG at a 1:10,000 dilution. Primary antibodies used were CDK5 (Millipore), P35/P25 (Millipore), Synapsin I (Santa Cruz), and HO-1 (Gift from Dr. Zhu). The blots were developed using Immobilon Western Chemiluminescent HRP Substrate (Millipore) and imaged using FluorChem M (ProteinSimple). Membranes were stripped using Restore Western Blot Stripping Buffer (Thermo Scientific) for reprobing. Quantifications were performed using ImageJ software.

CDK5 = experiment: Western blotting of hippocampal CDK5; assay type: in vivo; conditions: SAMP8 mice treated five weeks, relative to saline-treated group
Protocol: as §2

p35, p25 = experiment: Western blotting of hippocampal p35/p25; assay type: in vivo; conditions: hippocampus, SAMP8 mice, five weeks, vs saline
Protocol: as §2

HO-1 = experiment: Western blotting of hippocampal HO-1; assay type: in vivo; conditions: SAMP8 mice, 5 weeks, compared to saline-treated mice
Protocol: as §2

cyclooxygenase 2 (COX-2) = experiment: Cellular stress immunohistochemistry, COX-2; assay type: in vivo, SAMR1 mice; conditions: mice treated for 2 weeks, compared to saline-treated mice
Protocol: (§3) To determine the acute effects of pramilide on potential mechanisms associated with cognitive function a total of 12 control mice (SAMR1) 9 months of age were used to measure the effects of pramlintide on hippocampal neurogenesis. Half of the mice (n=6) were infused by minipump with pramlintide for a total of two weeks, while the other half (n=6) received minipumps filled with saline. For the last seven days of the experiment, all mice received daily intraperitoneal injections of 50 mg/kg BRDU (Sigma, St Louis, […].) dissolved in 0.9% saline and filtered at […]. One day after the last BRDU injection, mice were deeply anesthetized and transcranially perfused using 4% paraformaldehyde in 0.9% saline. The brains were then extracted and post-fixed in 4% paraformaldehyde for 24 hours, after which they were placed in a 30% sucrose solution for three days. All brains were quick-frozen and then cut into 40 μm sagital sections using a cryostatand stored at 4° C. as floating sections.
(§4) To determine whether pramilide had more acute neuroprotective effects in non-pathological conditions, sections from the same mice used for neurogenesis were used to determine markers of cellular stress. […]
(§5) Tissue sections were quantified. […] Six fields across the hippocampus were drawn and % staining within that field was measured using Metamorph software. […]

4-Hydroxynonenal (HNE) = experiment: Cellular stress immunohistochemistry, HNE; assay type: in vivo, SAMR1 mice; conditions: mice treated for 2 weeks, compared to saline-treated mice
Protocol: as §3, §4, §5

[3] = tested on: BrdU-positive cells in the dentate gyrus; experiment: BrdU immunostaining, hippocampal neurogenesis; assay type: in vivo; conditions: 9-month SAMR1 mice, two weeks minipump, compared to saline-treated mice
Protocol: as §3
BRDU immunohistochemistry was performed as previously described. […]
A validated sterology protocol was used to quantify BrdU-labeled cells in the dentate gyrus. […] All BrdU-positive cells in the dentate gyrus of the hippocampus were counted in every 6th section through the hippocampus, for a total of 12 sections per animal. […]

SAMP8 mice [4] = experiment: Morris water maze (learning, probe and retention trials); assay type: in vivo; conditions: chronic amylin; for MWM maze learning: acute leptin at time of testing, FIGS. 10 and 11
Text: In this Example, we examined whether chronic amylin administration has beneficial effects on cognition using senescence-accelerated SAMP8 mice, a validated animal model of mild cognitive impairment (MCI)/early Alzheimer's disease (AD) in which the mice experience premature cognitive deficits. Given that the anorectic effects of amylin are specifically synergistic with another metabolic hormone, leptin, we also studied whether amylin's effects on cognition might be enhanced when used in conjunction with leptin.
(§6) To validate the hypothesis that amylin is a cognitive enhancing drug that can be given alone and that may provide benefit for cognitive dysfunction associated diseases such as AD or age-related cognitive dysfunction (normal or Mild cognitive impairment (MCI)), we determined the ability of chronic treatment with amylin to improve cognitive function in the Morris water maze and object recognition tasks in the age accelerated SAMP8 mouse model, a model of MCI/early AD. […] Furthermore, improvement of amylin treatment in the retention trial, carried out 24 hrs reflects the ability of amylin to improve consolidation to long-term, permanent memory. (FIG. 9).
(§7) We were able to test this hypothesis under chronic amylin treatment and acute delivery of leptin at time of testing in SAMP8 mice. […] The slope of curve for the SAMP8 mice treated with a combination of amylin and leptin was the steepest […]. […] Novel object recognition testing, another cognition-based test, supported our findings in the MWM. […] It is important to note that these studies were carried out in cognitively impaired animals with leptin treatments under acute conditions. As such, it is likely that the lack of observable synergistic additive magnitude derives from insufficient length of leptin treatment.

SAMP8 mice [5] = experiment: Novel object recognition testing; assay type: in vivo; conditions: chronic amylin, leptin delivered acutely, vs saline, FIG. 13
Text: as §6, §7

## CC[C@H](C)[C@H](NC(=O)[C@@H]1CCCN1C(=O)CNC(=O)[C@H](Cc1ccccc1)NC(=O)[C@H](CC(N)=O)NC(=O)[C@H](CC(N)=O)NC(=O)[C@H](CO)NC(=O)[C@H](CO)NC(=O)[C@H](Cc1c[nH]cn1)NC(=O)[C@@H](NC(=O)[C@H](CC(C)C)NC(=O)[C@H](Cc1ccccc1)NC(=O)[C@H](CC(N)=O)NC(=O)[C@H](C)NC(=O)[C@H](CC(C)C)NC(=O)[C@H](CCCNC(=N)N)NC(=O)[C@H](CCC(N)=O)NC(=O)[C@@H](NC(=O)[C@H](C)NC(=O)[C@@H]1CSSC[C@H](NC(=O)[C@@H](N)CCCCN)C(=O)N[C@@H](CC(N)=O)C(=O)N[C@@H]([C@@H](C)O)C(=O)N[C@@H](C)C(=O)N[C@@H]([C@@H](C)O)C(=O)N1)[C@@H](C)O)C(C)C)C(=O)N[C@@H](CC(C)C)C(=O)N1CCC[C@H]1C(=O)N1CCC[C@H]1C(=O)N[C@H](C(=O)N[C@@H](CC(N)=O)C(=O)N[C@H](C(=O)NCC(=O)N[C@@H](CO)C(=O)N[C@@H](CC(N)=O)C(=O)N[C@H](C(=O)N[C@@H](Cc1ccc(O)cc1)C(N)=O)[C@@H](C)O)C(C)C)[C@@H](C)O [pramlintide]
[1]
  change in body weight: −5.8%
SAMP8 mice [2]; 5 weeks infusion, retention test 3 hours after training, vs saline
  recognition index: 0.67 (Std=0.06)
SAMP8 mice [2]; chronic treatment, vs saline-treated controls
  difference score (recognition memory): significantly increased
Synapsin I
  hippocampal expression of synapsin I: significantly increase
CDK5
  hippocampal expression of the protein CDK5: significantly increased
p35, p25
  amount of cleavage product p25: no differences
  amount of the CDK5 activator p35: no differences
  ratio of p25/p35: no differences
HO-1
  expression of the protein HO-1 in the hippocampus: significantly decreased
Cyclooxygenase 2 (COX-2)
  COX-2 immunostaining in the hippocampus: significant decreases
4-Hydroxynonenal (HNE)
  HNE immunostaining in the hippocampus: trend toward decreased
[3]
  more BrdU-positive cells in the dentate gyrus: 40%

## amylin: 37-amino acid polypeptide hormone normally co-secreted with insulin by pancreatic beta cells (KCNTATCATQRLANFLVHSSNNFGAILSSTNVGSNTY; not fully specified (C-terminus, bridges); cysteine pairing not given here; UniProt P10997 34-70, looked up)
SAMP8 mice [4]; SAMP8 (P8) vs non-treated P8, FIG. 8
  learning of the MWM task: potent effect on learning
SAMP8 mice [4]; SAMP8 vs non-treated P8, FIG. 9
  MWM probe trial: perform better than non-treated P8
SAMP8 mice [4]; SAMP8 mice
  MWM maze learning: improved
SAMP8 mice [4]; retention carried out 24 hrs, FIG. 9
  MWM retention trial: improvement

B1: leptin: metabolic hormone, delivered acutely at time of testing (protein, UniProt P41160 22-167, looked up)
Leptin: VPIQKVQDDTKTLIKTIVTRINDISHTQSVSAKQRVTGLDFIPGLHPILSLSKMDQTLAVYQQVLTSLPSQNVLQIANDLENLRDLLHLLAFSKSCSLPQTSGLQKPESLDGVLEASLYSTEVVALSRLQGSLQDILQQLDVSPEC
SAMP8 mice [4]; SAMP8 mice
  MWM maze learning: improved
SAMP8 mice [4]; acute leptin, SAMP8 mice, compared to saline, FIG. 12
  MWM probe/retention trials: no benefits
SAMP8 mice [5]
  novel object recognition, discrimination ratio: no benefits
